Source: ChEMBL document CHEMBL1201862, “PubChem BioAssay data set” (2004)
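In this assay, cells in 96-well plates receive the compound at five concentrations for 48 hours. Endpoints are linearly interpolated between the surrounding concentrations. GI50: concentration for 50% inhibition of growth.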 Activity calls are given as the source filed them. No stated cut-off is given here; in the data, active = GI50 up to about 1.1 µM and inactive = higher.

Key:
Test in all cases: growth of human tumour cells (NCI), 48 h
SK-OV-3 = system: SK-OV-3
MCF7 = system: MCF7
DU-145 = system: DU-145
Malme-3M = system: Malme-3M
HCT-116 = system: HCT-116
K562 = system: K562
MDA-MB-435 = system: MDA-MB-435
HT-29 = system: HT-29
HCC 2998 = system: HCC 2998
ACHN = system: ACHN
MOLT-4 = system: MOLT-4
U-251 = system: U-251
M14 = system: M14
MDA-MB-231 = system: MDA-MB-231
MDA-N = system: MDA-N
RPMI-8226 = system: RPMI-8226
SF-539 = system: SF-539
A498 = system: A498
T47D = system: T47D
SR = system: SR
NCI-H522 = system: NCI-H522
SF-268 = system: SF-268
HCT-15 = system: HCT-15
HOP-62 = system: HOP-62
SNB-75 = system: SNB-75
UACC-62 = system: UACC-62
UO-31 = system: UO-31
SN12C = system: SN12C
SK-MEL-28 = system: SK-MEL-28
CCRF-CEM = system: CCRF-CEM
EKVX = system: EKVX
HL-60 = system: HL-60
NCI-H226 = system: NCI-H226
NCI-H460 = system: NCI-H460
HOP-92 = system: HOP-92
OVCAR-5 = system: OVCAR-5
Hs-578T = system: Hs-578T
A549 = system: A549
TK-10 = system: TK-10
UACC-257 = system: UACC-257
OVCAR-3 = system: OVCAR-3
KM12 = system: KM12
COLO 205 = system: COLO 205
SF-295 = system: SF-295
OVCAR-8 = system: OVCAR-8
NCI/ADR-RES = system: NCI/ADR-RES
RXF 393 = system: RXF 393
SW-620 = system: SW-620
CAKI-1 = system: CAKI-1
LOX IMVI = system: LOX IMVI
OVCAR-4 = system: OVCAR-4
SK-MEL-5 = system: SK-MEL-5
IGROV-1 = system: IGROV-1
SK-MEL-2 = system: SK-MEL-2
NCI-H23 = system: NCI-H23
786-0 = system: 786-0
PC-3 = system: PC-3
SNB-19 = system: SNB-19

For `CCCCCOP(=O)(OCCCCC)C(NC(C)=O)(C(=O)OCC)C(F)(F)F` (centres undefined), the GI50 (SK-OV-3) was > 100 µM (inactive), the GI50 (MCF7) was > 100 µM (inactive) and the GI50 (DU-145) was > 100 µM (inactive). For the same molecule, the GI50 (Malme-3M) was > 100 µM (inactive), the GI50 (HCT-116) was > 100 µM (inactive) and the GI50 (K562) was > 100 µM (inactive). For the same molecule, the GI50 (MDA-MB-435) was > 100 µM (inactive), the GI50 (HT-29) was > 100 µM (inactive) and the GI50 (HCC 2998) was > 100 µM (inactive). For the same molecule, the GI50 (ACHN) was > 100 µM (inactive), the GI50 (MOLT-4) was > 100 µM (inactive) and the GI50 (U-251) was > 100 µM (inactive). The GI50 (M14) was > 100 µM (inactive), the GI50 (MDA-MB-231) was > 100 µM (inactive) and the GI50 (MDA-N) was > 100 µM (inactive). The GI50 (RPMI-8226) was > 100 µM (inactive), the GI50 (SF-539) was > 100 µM (inactive) and the GI50 (A498) was > 100 µM (inactive). The GI50 (T47D) was > 100 µM (inactive), the GI50 (SR) was > 100 µM (inactive) and the GI50 (NCI-H522) was > 100 µM (inactive). For the same molecule, the GI50 (SF-268) was > 100 µM (inactive), the GI50 (HCT-15) was greater than 100 µM and the GI50 (HOP-62) was > 100 µM (inactive). The GI50 (SNB-75) was > 100 µM (inactive), the GI50 (UACC-62) was > 100 µM (inactive) and the GI50 (UO-31) was > 100 µM (inactive). The GI50 (SN12C) was > 100 µM (inactive), the GI50 (SK-MEL-28) was > 100 µM (inactive) and the GI50 (CCRF-CEM) was > 100 µM (inactive). For the same molecule, the GI50 (EKVX) was > 100 µM (inactive) and the GI50 (HL-60) was > 100 µM (inactive).

With `O=C1C(Cl)=C(N2CCN(CCOCCO)CC2)C(=O)c2c(O)ccc(O)c21` the GI50 (DU-145) was 2.65 µM (inactive), the GI50 (NCI-H226) was 1.75 µM (inactive) and the GI50 (NCI-H460) was 3.08 µM (inactive). For the same molecule, the GI50 (K562) was 0.104 µM (active), the GI50 (HT-29) was 0.64 µM (active) and the GI50 (HCC 2998) was 3.28 µM (inactive). The GI50 (MOLT-4) was 0.0869 µM (active), the GI50 (HOP-92) was 0.422 µM (active) and the GI50 (OVCAR-5) was 2.38 µM (inactive). For the same molecule, the GI50 (SF-539) was 1.66 µM (inactive), the GI50 (T47D) was 0.458 µM (active) and the GI50 (HCT-15) was 0.453 µM. The GI50 (SNB-75) was 1.77 µM (inactive), the GI50 (Hs-578T) was 2.1 µM (inactive) and the GI50 (A549) was 2.77 µM (inactive). For the same molecule, the GI50 (HL-60) was 0.0272 µM (active).

For `CC(=O)OCC1OC(n2c(C)c(C(C)=O)c(-c3cccc4ccccc34)c(C#N)c2=S)C(OC(C)=O)C(OC(C)=O)C1OC(C)=O` (centres undefined), the GI50 (TK-10) was > 100 µM (inactive), the GI50 (UACC-257) was > 100 µM (inactive) and the GI50 (SK-OV-3) was > 100 µM (inactive). For the same molecule, the GI50 (MCF7) was > 100 µM (inactive), the GI50 (DU-145) was > 100 µM (inactive) and the GI50 (OVCAR-3) was > 100 µM (inactive). For the same molecule, the GI50 (KM12) was > 100 µM (inactive), the GI50 (NCI-H226) was > 100 µM (inactive) and the GI50 (COLO 205) was > 100 µM (inactive). The GI50 (SF-295) was > 100 µM (inactive), the GI50 (OVCAR-8) was > 100 µM (inactive) and the GI50 (Malme-3M) was > 100 µM (inactive). The GI50 (HCT-116) was > 100 µM (inactive), the GI50 (NCI/ADR-RES) was > 100 µM (inactive) and the GI50 (NCI-H460) was > 100 µM (inactive). For the same molecule, the GI50 (RXF 393) was > 100 µM (inactive), the GI50 (K562) was > 100 µM (inactive) and the GI50 (MDA-MB-435) was > 100 µM (inactive). The GI50 (HT-29) was > 100 µM (inactive), the GI50 (HCC 2998) was > 100 µM (inactive) and the GI50 (SW-620) was > 100 µM (inactive). For the same molecule, the GI50 (CAKI-1) was > 100 µM (inactive), the GI50 (ACHN) was > 100 µM (inactive) and the GI50 (MOLT-4) was > 100 µM (inactive). The GI50 (U-251) was > 100 µM (inactive), the GI50 (M14) was > 100 µM (inactive) and the GI50 (MDA-MB-231) was > 100 µM (inactive). For the same molecule, the GI50 (MDA-N) was > 100 µM (inactive), the GI50 (HOP-92) was 17.5 µM (inactive) and the GI50 (OVCAR-5) was > 100 µM (inactive). For the same molecule, the GI50 (LOX IMVI) was > 100 µM (inactive), the GI50 (OVCAR-4) was > 100 µM (inactive) and the GI50 (SK-MEL-5) was 28.7 µM (inactive). The GI50 (IGROV-1) was > 100 µM (inactive), the GI50 (SF-539) was > 100 µM (inactive) and the GI50 (A498) was > 100 µM (inactive). The GI50 (T47D) was > 100 µM (inactive), the GI50 (SR) was > 100 µM (inactive) and the GI50 (NCI-H522) was > 100 µM (inactive). For the same molecule, the GI50 (SF-268) was > 100 µM (inactive), the GI50 (HCT-15) was greater than 100 µM and the GI50 (HOP-62) was > 100 µM (inactive). For the same molecule, the GI50 (SNB-75) was 25.9 µM (inactive), the GI50 (SK-MEL-2) was > 100 µM (inactive) and the GI50 (UACC-62) was > 100 µM (inactive). For the same molecule, the GI50 (NCI-H23) was > 100 µM (inactive), the GI50 (UO-31) was < 0.01 µM (active) and the GI50 (SN12C) was > 100 µM (inactive). The GI50 (SK-MEL-28) was > 100 µM (inactive), the GI50 (786-0) was > 100 µM (inactive) and the GI50 (A549) was > 100 µM (inactive). The GI50 (PC-3) was > 100 µM (inactive), the GI50 (CCRF-CEM) was > 100 µM (inactive) and the GI50 (SNB-19) was > 100 µM (inactive). For the same molecule, the GI50 (EKVX) was > 100 µM (inactive) and the GI50 (HL-60) was > 100 µM (inactive).
